The test system of one assay is SUP-T1 cells. Description: Inhibition of CXCL12-induced T-cell derived leukemia cell migration (Transwell). To be noted: 10 nM of the antagonist; 30 nM CXCL12; 4 hours. Format: cell-based, human. As for the experimental part: 30 nM of CXCL12 (R&D System Company) and 600 μL/well of buffer-A (0.1% bovine serum albumin, DMEM (GibcoBRL) containing 12 mM HEPES) containing the test compound were added to the lower chamber of Transwell filter (polycarbonate filter, 8 μm diameter, Costar Company). The test compound and human cell-derived leukemia SUP-T1 cells (purchased from American Tissue Culture Collection), and 100 μL/well of buffer A containing 2×10^6 cells/mL were added to the upper chamber. After 4 hours' incubation at 37° C. in 5% CO2 incubator, the number of the cells moved to the lower chamber was counted by Coulter counter. Control (−) indicates the migration when CXCL12 was not added. Control (+) indicates the migration when CXCL12 was added. By adding CXCL12, the migration of SUP-T1 cells was enhanced. This CXCL12-induced migration of SUP-T1 cells was inhibited by 10 nM of the antagonist, 4Fbenzoyl-TN-14003. From the foregoing, 4Fbenzoyl-TN-14003, by inhibiting the movement of T-cells at low concentrations, is considered to be useful as an inhibitory drug for chronic rheumatoid arthritis.

A further assay concerns the target T1, CXCR4 receptor (Homo sapiens, UniProt P61073).
T1 construct: 50 μL of Jurkat human T-cell leukemia cells (6×10^6 cells/mL) suspended in buffer; endogenous in cells; host or cells: Jurkat human T-cell leukemia cells
In words: Inhibition of 125I-CXCL12 binding to CXCR4 receptor on Jurkat cells. To be noted: Table 1, 125I-CXCL12, 1 hour at room temperature, compounds as acetate salt, read-out: IC50 (nM), inhibitory activity against CXCL12 binding to CXCR4 receptor.

The test system of assay [1] is MDA-MB-231 human breast cancer cells. Description: Anti-metastatic activity, MDA-MB-231 cells implanted i.v. in SCID mice, lung metastasis. Format: in vivo, CB-17 SCID mice. To be noted: 18.2 mg/kg/day by Alzet osmotic pump, 28 days after implantation. As for the experimental part: MDA-MB-231 human breast cancer cells (10^6 cells) were implanted intravenously into the tails of five week-old female CB-17 SCID mice (Crea Japan, Inc.). 4Fbenzoyl-TN-14003 was prepared at 80 mg/mL in physiologic saline solution, was included into sustained-releasing osmotic pumps (Alzet pump, Alza Corporation, usable for 2 week sustained-release; the dose was equivalent to 18.2 mg/kg/day), and was intradermally loaded to the backs of the mice on the date immediately preceding the implantation. Further, 14 days after the implantation, Alzet pumps containing an equal dose of the drug were additionally loaded. To the control group, Alzet pumps injected with physiological saline solution were additionally loaded. 28 days after the implantation, the mice were dissected, about 2 mL of 0.2% Evans' Blue solution was injected through windpipes, and lungs were stained. The lungs were taken out, soaked in Bouin's liquid, stained and fixed. […] In the lungs of the control group, the yellow stained portions were evenly seen, and lung metastasis was observed. On the other hand, in the 4Fbenzoyl-TN-14003 administration group, yellow stained specimens were less.

Assay [2] concerns mouse DTH reaction induced by SRBC. Description: Mouse delayed-type hypersensitivity reaction (DTH) induced by SRBC. Format: in vivo, BALB/c mice. To be noted: Alzet osmotic pump. Here is the method: Preserved blood of sheep was purchased from Nippon Bio-Supp. Center. The preserved sheep blood was cleansed twice in physiological saline solution, suspended in physiological saline solution, and used as sheep red blood cells (SRBC). As OD541 nm value of oxyhemoglobin at the time of hemolyzation of 1.0×10^9 cells/mL of the SRBC suspension by 14 parts distilled water is considered to be nearly 0.700, SRBC density was accordingly fixed.
2×10^7 cells/50 μl of SRBC were administered subcutaneously to the ankles of the left hindlimbs of BALB/c mice (male, 6 week-old, Charles River Japan, Inc.) and sensitized. After 5 days, 10^8 cells/50 μl of SRBC were administered subcutaneously to the ankles of the right hindlimbs and DTH reaction was induced. Immediately prior to and 24 hours after the induction of antigens, the thickness of the ankles of the right hindlimbs was measured by a digital micrometer (Mitutoyo Corporation CD-15B), and the increase (mm) in the thickness of ankles was adopted as the indicator of DTH reaction.
4Fbenzoyl-TN14003 was dissolved to PBS, and continuously administered using Alzet osmotic pumps (Alza, 0.5 μL/hr, 7 days persistent type). The osmotic pumps were implanted intradermally to the backs under ether anesthesia on the day before the sensitization. As the control, pumps injected with PBS were similarly implanted. 4F-benzoyl-TN14003 was administered at the doses of 4.8, 24 and 120 μg/day.
Data were expressed as mean value±standard margin of error (n=7). By Williams test, p≦0.025 was valued as significant.

The structures appear in SMILES notation. Bridge positions count the residues as written; N and C are the ends. Square brackets hold non-standard residues; d marks the D form. Peptide text beside a SMILES is read from it. * marks the point of attachment. 2Nal = N[C@@H](Cc1ccc2ccccc2c1)C(=O)O; Benzoyl(4-F) = O=C(c1ccc(F)cc1)*; Cit = NC(=O)NCCC[C@H](N)C(=O)O

T1 sequence (P61073 whole entry): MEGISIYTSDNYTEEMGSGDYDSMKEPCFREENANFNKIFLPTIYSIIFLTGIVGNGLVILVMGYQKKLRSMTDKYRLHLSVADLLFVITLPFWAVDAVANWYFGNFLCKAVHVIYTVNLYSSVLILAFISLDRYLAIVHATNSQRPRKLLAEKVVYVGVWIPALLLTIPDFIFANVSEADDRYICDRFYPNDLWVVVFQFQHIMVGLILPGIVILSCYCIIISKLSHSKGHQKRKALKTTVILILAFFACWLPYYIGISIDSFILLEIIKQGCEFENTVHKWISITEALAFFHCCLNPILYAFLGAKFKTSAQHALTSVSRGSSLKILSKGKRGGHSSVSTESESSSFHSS
Protocol for CXCR4 receptor: After reaction, suction was made toward the reaction solution by 96 well GF/C filter plate, and each well's radioactivity was measured by top count. As the radioactivity index of 100% when the test compound was not added, and 0% when 100 nM of non-radioisotope-labeled CXCL12 was added, the inhibitory activity of each test compound was measured.

Take `N=C(N)NCCC[C@H](NC(=O)[C@@H]1CSSC[C@H](NC(=O)[C@H](Cc2ccc3ccccc3c2)NC(=O)[C@H](CCCNC(=N)N)NC(=O)[C@H](CCCNC(=N)N)NC(=O)c2ccc(F)cc2)C(=O)N[C@@H](Cc2ccc(O)cc2)C(=O)N[C@@H](CCCNC(N)=O)C(=O)N[C@@H](CCCCN)C(=O)N[C@H](CCCCN)C(=O)N2CCC[C@H]2C(=O)N[C@@H](Cc2ccc(O)cc2)C(=O)N[C@@H](CCCNC(=N)N)C(=O)N[C@@H](CCCNC(N)=O)C(=O)N1)C(N)=O` [4F-benzoyl-TN14003, 4F-benzoyl-Arg-Arg-Nal-Cys-Tyr-Cit-Lys-DLys-Pro-Tyr-Arg-Cit-Cys-Arg-NH2] ({Benzoyl(4-F)}-RR[2Nal]CY[Cit]K[dK]PYR[Cit]CR-NH2; disulfide 4-13): the “CXCL12-induced migration of SUP-T1 cells” value in the assay with SUP-T1 cells was “inhibited”. On CXCR4 receptor, the IC50 came to 0.99 nM. The “lung metastasis (eye observation of metastatic focus)” value in assay [1] is “the metastasis was inhibited”. The “inhibitory rate of footpad edema (DTH)” value is on record as 9% in assay [2] (4.8 μg/day), 31% in assay [2] (24 μg/day) and 51% in assay [2] (120 μg/day).

Values taken from patent publication US8017585B2, “CXCR4 antagonist and use thereof” (priority 2002, dated 2011).
